This assay concerns the target T1, integrin αIIbβ3 (Homo sapiens, UniProt P05106+P08514).
T1 construct: gene ITGA2B; Purified human integrin αIIbβ3; with integrin β3 (ITGB3, P05106)
The assay is described as follows: ELISA: inhibition of purified human αIIbβ[…] binding to immobilized fibrinogen. In general terms: In an ELISA, binding on a coated surface is turned into a signal by an enzyme label.

These results are taken from PMC6121621, “A Short Half-Life αIIbβ3 Antagonist ANTP266 Reduces Thrombus Formation” (International Journal of Molecular Sciences, 2018).

Broadly, the IC50 is the concentration needed to halve the response being measured. Low readings indicate greater potency, high ones weaker potency.

T1 sequence (P08514 32-887): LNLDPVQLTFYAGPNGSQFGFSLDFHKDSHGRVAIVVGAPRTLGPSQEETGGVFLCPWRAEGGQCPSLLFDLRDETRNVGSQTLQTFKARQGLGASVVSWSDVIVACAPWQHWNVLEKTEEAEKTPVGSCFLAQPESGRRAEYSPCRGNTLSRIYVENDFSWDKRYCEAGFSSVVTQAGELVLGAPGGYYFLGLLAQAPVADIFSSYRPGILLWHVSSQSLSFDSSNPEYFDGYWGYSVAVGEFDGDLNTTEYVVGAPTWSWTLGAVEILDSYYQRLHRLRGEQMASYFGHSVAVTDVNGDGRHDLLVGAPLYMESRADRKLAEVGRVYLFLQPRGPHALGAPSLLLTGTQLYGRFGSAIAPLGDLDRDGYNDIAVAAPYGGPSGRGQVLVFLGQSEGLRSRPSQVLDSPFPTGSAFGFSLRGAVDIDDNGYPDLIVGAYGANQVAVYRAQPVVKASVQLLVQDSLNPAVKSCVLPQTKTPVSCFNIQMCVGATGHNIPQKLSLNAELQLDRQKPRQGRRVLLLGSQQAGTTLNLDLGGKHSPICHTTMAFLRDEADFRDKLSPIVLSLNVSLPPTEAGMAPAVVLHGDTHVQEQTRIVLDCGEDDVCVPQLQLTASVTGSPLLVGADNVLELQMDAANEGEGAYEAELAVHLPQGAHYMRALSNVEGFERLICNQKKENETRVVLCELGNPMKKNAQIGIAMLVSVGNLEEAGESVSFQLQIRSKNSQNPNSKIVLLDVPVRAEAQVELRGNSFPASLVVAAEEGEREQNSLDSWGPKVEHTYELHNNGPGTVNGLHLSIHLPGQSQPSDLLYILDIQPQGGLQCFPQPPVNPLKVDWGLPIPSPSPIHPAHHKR
T1 sequence (P08514 891-1039): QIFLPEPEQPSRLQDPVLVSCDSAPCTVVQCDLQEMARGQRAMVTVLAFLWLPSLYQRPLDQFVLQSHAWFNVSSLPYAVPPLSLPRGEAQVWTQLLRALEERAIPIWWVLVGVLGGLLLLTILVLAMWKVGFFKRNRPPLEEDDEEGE
T1 sequence (P05106 27-788): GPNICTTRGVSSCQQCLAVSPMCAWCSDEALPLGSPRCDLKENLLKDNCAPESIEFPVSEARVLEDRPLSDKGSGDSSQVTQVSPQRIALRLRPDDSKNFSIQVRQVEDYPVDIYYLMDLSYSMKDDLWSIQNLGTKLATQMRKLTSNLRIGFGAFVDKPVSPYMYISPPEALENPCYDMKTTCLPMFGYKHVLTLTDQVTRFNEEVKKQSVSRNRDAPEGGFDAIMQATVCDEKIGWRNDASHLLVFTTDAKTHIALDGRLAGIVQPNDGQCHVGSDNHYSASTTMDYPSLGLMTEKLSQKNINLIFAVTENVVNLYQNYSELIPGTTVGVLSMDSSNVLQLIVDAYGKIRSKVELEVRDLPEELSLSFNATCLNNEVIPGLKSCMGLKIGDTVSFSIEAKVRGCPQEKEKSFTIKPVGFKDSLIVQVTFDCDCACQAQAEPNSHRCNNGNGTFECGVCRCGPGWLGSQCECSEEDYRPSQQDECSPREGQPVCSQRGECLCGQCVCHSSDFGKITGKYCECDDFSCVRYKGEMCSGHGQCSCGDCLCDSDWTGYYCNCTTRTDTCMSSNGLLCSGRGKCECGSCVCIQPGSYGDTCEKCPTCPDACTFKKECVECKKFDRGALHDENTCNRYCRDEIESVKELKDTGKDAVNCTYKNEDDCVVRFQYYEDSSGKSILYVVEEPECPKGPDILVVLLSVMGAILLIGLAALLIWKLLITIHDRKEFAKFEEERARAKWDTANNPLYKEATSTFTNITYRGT

`COc1ccc(S(=O)(=O)NC(Cc2ccc3cc(OCCN4CCNCC4)ccc3c2)C(=O)O)cc1` (stereo not shown) [ANTP266, 2-((4-methoxyphenyl)sulfonamido)-3-(6-(2-(piperazin-1-yl)ethoxy)naphthalene-2-yl) propanoic acid] came in with an IC50 of 370 nM.
